How the values were obtained:
[1] = target: T1, LYP (Homo sapiens, UniProt Q9Y2R2); assay type: biochemical
T1 sequence (Q9Y2R2 1-303): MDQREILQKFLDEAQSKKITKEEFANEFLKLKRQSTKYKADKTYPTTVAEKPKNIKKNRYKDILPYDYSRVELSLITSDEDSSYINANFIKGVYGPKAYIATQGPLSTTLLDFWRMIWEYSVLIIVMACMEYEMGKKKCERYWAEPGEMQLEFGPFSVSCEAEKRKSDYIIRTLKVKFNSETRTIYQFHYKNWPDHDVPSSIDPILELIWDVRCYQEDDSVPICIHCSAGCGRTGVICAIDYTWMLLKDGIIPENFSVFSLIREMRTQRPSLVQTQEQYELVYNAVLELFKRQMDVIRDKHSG

[2] = tested on: JTAg cells; assay: Phospho-flow cytometry of ZAP-70; conditions: […] µM, 30 min pre-incubation, C305 stimulation 2 min, vs DMSO
[3] = tested on: JTAg cells; assay: CD69 surface expression on JTAg cells; conditions: […] µM, 4.5 hours at 37°C, resting JTAg cells; DMSO MFI=451
[4] = tested on: BMMC; assay: Mast cell degranulation
[5] = tested on: double-positive (DP) thymocytes; assay: Nur77 expression; conditions: […] µM, […] at 37°C, thymocytes from Nur77GFP mice; DMSO MFI=604
[6] = tested on: double-positive (DP) thymocytes; assay: CD69 surface expression on mouse thymocytes; conditions: […] µM, […] at 37°C, thymocytes from Nur77GFP mice; DMSO MFI=381
[7] = tested on: BMMC; assay: NF-AT luciferase reporter gene analysis in BMMC; assay type: cell-based, mouse
[8] = tested on: mice; assay: Passive systemic anaphylaxis; assay type: in vivo, mouse; conditions: PEP+/+ mice, 8b (20 µM) IP 1 h before DNP-HSA i.v., vs untreated groups

O=C(O)c1cc2c(C#Cc3cccc(Cl)c3)c(-c3ccccc3)oc2cc1O [Compound 4c]
improvement of LYP inhibitory potency compared to Core 1 [1]: 50 fold

O=C(O)c1cc2c(C#Cc3ccc(Oc4ccccc4)cc3)c(-c3ccccc3)oc2cc1O [Compound 4i]
improvement of LYP inhibitory potency compared to Core 1 [1]: 50 fold

O=C(COc1ccc(-c2oc3cc(O)c(C(=O)O)cc3c2C#Cc2cccc(Cl)c2)cc1)NC1CC1 [Compound 8b, 3-((3-Chlorophenyl)ethynyl)-2-(4-(2-(cyclopropylamino)-2-oxoethoxy)phenyl)-6-hydroxybenzofuran-5-carboxylic Acid]
basal and TCR-stimulated phosphorylation of ZAP-70 on Tyr319 [2]: increased
CD69 expression, median fluorescence intensity (MFI) [3]: 616
antigen-stimulated degranulation (release of β-hexosaminidase) ([4]; PEP+/+ BMMC, C28 5 µM, 8b 5 and 20 µM for 1 h, DNP-HSA 200 ng/ml): down-regulated
residual degranulation ([4]; PEP−/− BMMC): Neither compunds affected residual degranulation
Nur77 expression by GFP cell fluorescence, MFI [5]: 1120
CD69 expression, MFI [6]: 758
basal and antigen-mediated NF-AT luciferase activity ([7]; PEP+/+ BMMC, C28 5 µM, 8b 5 and 20 µM for 1 h, DNP-HSA 8 h): dose dependent down-regulation
residual NF-AT activity ([7]; PEP−/− BMMC): No significant effect
susceptibility to passive systemic anaphylaxis (change in body temperature) [8]: less susceptible to PSA

— article PMC3711248 (Journal of medicinal chemistry, 2013)
